Experimental data published in patent publication US10934312B2, “Tricyclic heterocycle compounds useful as HIV integrase inhibitors” (Merck Sharp & Dohme Corp., priority 2016, dated 2021).

These compounds were tested on HIV-1 (NL4-3 strain) (assay: Assay for Inhibition of HIV Replication (VIKING, MT4-gag-GFP reporter cells)). Details: 0% normal human serum; MT4-GFP cells infected with HIV-1 NL4-3; infected cells at 48 h / 24 h; read-out: VIKING IP50 (nM) with 0% NHS.
Assay type: cell-based
Description: This assay may be useful for assessing the ability of a compound of the present invention to inhibit HIV replication. The assay is a kinetic assay that employs a reporter cell line (MT4-gag-GFP) to quantify the number of new cells infected in each round of replication.
MT4-GFP cells (250,000 cells/ml) are bulk-infected with HIV-1 (NL4-3 strain) at low multiplicity of infection (MOI) in RPMI+10% FBS for 24 hours. Cells are then washed once in RPMI+10% FBS and resuspended in RPMI+0% normal human serum (NHS). Test compounds are serial-diluted in DMSO on ECHO. The infected MT4-GFP cells are added to a 384-well poly-D-lysine coated black plate with clear bottom in which the diluted test compounds are placed. The cells are seeded at 8,000 cells per well and the final DMSO concentration is adjusted to 0.4%. The infected cells (Green GFP cells) are then quantified at both 24 and 48 hours post incubation using Acumen eX3. Viral reproductive ratio (R0) is determined using the number of infected cells at 48 hours divided by the number of infected cells at 24 hours. Percent viral growth inhibition is calculated by [1-(R—Rtripledrug)/(RDMSO—Rtripledrug)]*100. Compound potency IP or IC50 may be determined using a 4-parameter dose response curve analysis.

Row | Compound | IC50 [nM]
1 | COCCN1CN2CC(OC)c3c(C(=O)NCc4ccc(F)cc4)c(=O)c(O)c(n32)C1=O (single isomer, unassigned) [Compound 14] | 4.6
2 | COC1CN2n3c(c(O)c(=O)c(C(=O)NCc4ccc(F)cc4F)c31)C(=O)N(C)C21CCOC1 (stereo not drawn) [Compound 40] | 3.8
3 | COC1CN2CN(CC3CC3)C(=O)c3c(O)c(=O)c(C(=O)NCc4cccc(Cl)c4F)c1n32 (single isomer, unassigned) [Compound 20] | 1.2
4 | COCCN1CN2CC(OC)c3c(C(=O)NCc4ccc(F)c(Cl)c4F)c(=O)c(O)c(n32)C1=O (single isomer, unassigned) [Compound 11] | 1.1
5 | COCCN1CN2CC(OC)c3c(C(=O)NCc4cccc(Cl)c4F)c(=O)c(O)c(n32)C1=O (single isomer, unassigned) [Compound 13] | 1
6 | COCCN1CN2CC(OC)c3c(C(=O)NCc4cccc(Cl)c4F)c(=O)c(O)c(n32)C1=O (single isomer, unassigned) [Compound 12] | 2.3
7 | CCN1CN2CC(OC)c3c(C(=O)NCc4ccc(F)c(Cl)c4F)c(=O)c(O)c(n32)C1=O (single isomer, unassigned) [Compound 25] | 0.9
8 | CCN1CN2CC(OC)c3c(C(=O)NCc4cccc(Cl)c4F)c(=O)c(O)c(n32)C1=O (single isomer, unassigned) [Compound 27] | 1.2
9 | COC1CN2CN(C)C(=O)c3c(O)c(=O)c(C(=O)NCc4ccc(F)c(Cl)c4)c1n32 (single isomer, unassigned) [Compound 33] | 0.8
10 | COC1CN2n3c(c(O)c(=O)c(C(=O)NCc4ccc(F)cc4F)c31)C(=O)N(C)C21CCOC1 (stereo not drawn) [Compound 39] | 2.4
11 | COC1CN2CN(C)C(=O)c3c(O)c(=O)c(C(=O)NCc4cccc(Cl)c4F)c1n32 (single isomer, unassigned) [Compound 31] | 0.5
12 | COC1CN2CN(C)C(=O)c3c(O)c(=O)c(C(=O)NCc4cccc(Cl)c4F)c1n32 (single isomer, unassigned) [Compound 30] | 1.5
13 | COC1CN2n3c(c(O)c(=O)c(C(=O)NCc4ccc(F)cc4F)c31)C(=O)N(C)C21CCOC1 (stereo not drawn) [Compound 37] | 8.5
14 | COCCN1CN2CC(OC)c3c(C(=O)NCc4ccc(F)cc4)c(=O)c(O)c(n32)C1=O (single isomer, unassigned) [Compound 15] | 1.9

Same assay, conditions: Human immunodeficiency virus 1, NL43, 0% normal human serum; MT4-GFP cells infected with HIV-1 NL4-3; infected cells at 48 h / 24 h; read-out: VIKING IP50 (nM) with 0% NHS

Row | Compound | IC50 [nM]
15 | CN1CN2CCc3c(C(=O)NCc4ccc(F)cc4F)c(=O)c(O)c(n32)C1=O [Compound 42] | 1.6
16 | CCN1Cn2ccc3c(C(=O)NCc4ccc(F)cc4F)c(=O)c(O)c(n32)C1=O [Compound 34] | 11.5
17 | CN1CN2CCc3c(C(=O)NCc4c(F)ccc(Cl)c4F)c(=O)c(O)c(n32)C1=O [Compound 43] | 1.8
18 | COC1CN2CN(C(C)C)C(=O)c3c(O)c(=O)c(C(=O)NCc4ccc(F)cc4F)c1n32 (stereo not drawn) [Compound 7] | 13.3
19 | CN1CN2CCc3c(C(=O)NCc4c(F)cc(F)cc4F)c(=O)c(O)c(n32)C1=O [Compound 41] | 2.9
20 | CCN1CN2CC(OC)c3c(C(=O)NCc4cccc(Cl)c4F)c(=O)c(O)c(n32)C1=O (single isomer, unassigned) [Compound 26] | 1.5
21 | CC(C)N1CN2C(=O)N(C)Cc3c(C(=O)NCc4ccc(F)cc4F)c(=O)c(O)c(n32)C1=O [Compound 4] | 2
22 | COCCN1CN2CC(OC)c3c(C(=O)NCc4ccccc4F)c(=O)c(O)c(n32)C1=O (single isomer, unassigned) [Compound 16] | 1.5
23 | COC1CN2CN(C)C(=O)c3c(O)c(=O)c(C(=O)NCc4ccc(F)cc4F)c1n32 (single isomer, unassigned) [Compound 29] | 9.9
24 | CCN1CN2CCCc3c(C(=O)NCc4ccc(F)cc4F)c(=O)c(O)c(n32)C1=O [Compound 36] | 11.4
25 | CCN1CN2CCc3c(C(=O)NCc4ccc(F)cc4F)c(=O)c(O)c(n32)C1=O [Compound 35] | 2.2
26 | COC1CN2CN(CC3CC3)C(=O)c3c(O)c(=O)c(C(=O)NCc4cccc(Cl)c4F)c1n32 (single isomer, unassigned) [Compound 19] | 2.4
27 | COC1CN2CN(C)C(=O)c3c(O)c(=O)c(C(=O)NCc4ccc(F)c(Cl)c4)c1n32 (single isomer, unassigned) [Compound 32] | 1.2
28 | COC1CN2CN(CC3CC3)C(=O)c3c(O)c(=O)c(C(=O)NCc4ccc(F)cc4F)c1n32 (single isomer, unassigned) [Compound 18] | 0.4
29 | COC1CN2CN(CC3CC3)C(=O)c3c(O)c(=O)c(C(=O)NCc4ccc(F)c(Cl)c4)c1n32 (single isomer, unassigned) [Compound 21] | 1
30 | CCN1CN2CC(OC)c3c(C(=O)NCc4ccc(F)cc4F)c(=O)c(O)c(n32)C1=O (single isomer, unassigned) [Compound 23] | 4.1
31 | CCN1CN2CC(OC)c3c(C(=O)NCc4ccc(F)c(Cl)c4F)c(=O)c(O)c(n32)C1=O (single isomer, unassigned) [Compound 24] | 1.5
32 | COCCN1CN2CC(OC)c3c(C(=O)NCc4ccc(F)c(Cl)c4F)c(=O)c(O)c(n32)C1=O (single isomer, unassigned) [Compound 10] | 1.4
33 | COC1CN2n3c(c(O)c(=O)c(C(=O)NCc4ccc(F)cc4F)c31)C(=O)N(C)C21CCOC1 (stereo not drawn) [Compound 38] | 2.6
34 | COCCN1CN2C(=O)N(C)Cc3c(C(=O)NCc4ccc(F)cc4F)c(=O)c(O)c(n32)C1=O [Compound 5] | 1.7
35 | CCN1CN2CC(OC)c3c(C(=O)NCc4ccc(F)cc4F)c(=O)c(O)c(n32)C1=O (stereo not drawn) [Compound 22] | 2.1
36 | COCCN1CN2CC(OC)c3c(C(=O)NCc4ccc(F)cc4F)c(=O)c(O)c(n32)C1=O (single isomer, unassigned) [Compound 9] | 1.4
